From patent publication US6924302B2, “Substituted triazole diamine derivatives as kinase inhibitors” (Ortho McNeil Pharmaceutical, Inc., priority 2000, dated 2005)
Where two headings read alike, the source gives them in different places.

How the values were obtained:
CDK1:Cyclin-B = target: T1, CDK1:Cyclin-B (Homo sapiens, UniProt P06493); assay: CDK1 Screening Assay; assay type: biochemical
T1 construct: purchased New England Biolabs 6020; host or cells: insect cells
Method in brief: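 Human CDK1:cyclin-B (30 ng/well) with biotinylated histone-H1 peptide and ^33P-γ-ATP, 1 h at 30° C, 1% DMSO, on streptavidin FlashPlate; incorporation read by scintillation.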

[1] = target: T2, VEGF-R (vascular endothelial growth factor receptor-2) (Rattus norvegicus, UniProt O08775); assay: VEGF-R Screening Assay; assay type: biochemical
T2 construct: polyhistidine (6xHIS) (N)

[2] = target: T3, PDGF-R (platelet derived growth factor receptor) beta subunit kinase domain (Homo sapiens, UniProt P09619); assay: Kinase Selectivity Assay PDGF-R; assay type: biochemical
T3 construct: nucleotides 1874-3507 of the human PDGF-R beta subunit kinase domain; polyhistidine (N)
Method: (§1) Assays to test compound inhibition of other kinases were preformed using methods that measure the amount of phosphorylation of a biotinylated peptide substrate. Biotinylated peptide substrates were selected from the literature as appropriate for the enzyme being evaluated. […] Assay conditions vary slightly for each protein kinase, for example, insulin receptor kinase requires 10 mM MnCl2 for activity and Calmodulin-dependent protein kinase requires calmodulin and 10 mM CaCl2. These assay conditions are known in the art. The reaction mixture was dispensed into the wells of a streptavidin coated Flashplate and 1 μl drug stock in 100% DMSO was added to a 100 μl reaction volume resulting in a final concentration of 1% DMSO on the reaction. Enzyme was diluted in 50 mM Tris-HCl pH=8.0, 0.1% BSA and add to each well. The reaction was incubated for one hour at 30° C. in the presence of compound. After one hour the reaction mix was aspirated from the plate and the plate was washed with PBS containing 100 mM EDTA. The plate was read on a scintillation counter to determine ^33P-γ-ATP incorporated into the immobilized peptide. Test compounds were assayed in duplicate at 8 concentrations [100 uM, 10 uM, 1 uM, 100 nM, 10 nM, 1 nM, 100 pM, 10 pM]. A maximum and minimum signal for the assay was determined on each plate. The IC50 was calculated from the dose response curve of the percent inhibition of the maximum signal in the assay according to the formula [max signal—background/test compound signal—background (100)=% inhibition] by graphing the percent inhibition against the log concentration of test compound. Known inhibitor compounds appropriate for the kinase being assayed were also included on each plate.
(§2) CDK2 in complex with cyclin A is commercially available (Upstate Biotech, Lake Placid, N.Y.). The CDK4 complex was composed of a mouse CDK4 protein and a mouse Cyclin D1 protein (The mouse CDK4 protein was genetically fused to an N-terminal Flag-epitope tag and the mouse Cyclin D1 protein was fused with an N-terminal AU-1 epitope tag. The genes encoding these proteins were transferred to commercially available baculoviral vectors. The recombinant CDK4/D1 complex was then made by co-infecting commercially available insect cells with viruses carrying these two constructs). […] ERK-1 protein (Discontinued from Calbiochem). EGFR (epidermal growth factor receptor) is purified from human A431 cell membranes (Sigma, St. Louis, Mo., Cat.# E3641).

[3] = target: T4, Glycogen Synthase Kinase-3 (beta isoform) (Oryctolagus cuniculus, UniProt G1T8E2); assay: Kinase Selectivity Assay Glycogen Synthase Kinase-3; assay type: biochemical, rabbit
T4 construct: purchased New England Biolabs 6040; host or cells: E. coli
Method: as §1, §2

[4] = target: T5, MAP Kinase (ERK-2 isoform) (Rattus norvegicus, UniProt P63086); assay: Kinase Selectivity Assay MAP Kinase (ERK-2); assay type: biochemical
T5 construct: polyhistidine (N); host or cells: E. coli
Method: as §1, §2

[5] = target: T6, Casein Kinase 2 (alpha and beta subunits) (Homo sapiens, UniProt P68400); assay: Kinase Selectivity Assay Casein Kinase 2; assay type: biochemical
T6 construct: purchased New England Biolabs 6010; host or cells: E. coli
Method: as §1, §2

Protein Kinase A = target: T7, Protein Kinase A (Bos taurus, UniProt P00517); assay: Kinase Selectivity Assay Protein Kinase A; assay type: biochemical, bovine
T7 construct: purified from bovine heart; purchased Upstate Biotech 14-114; host or cells: bovine heart
Method: as §1, §2

[6] = target: T8, Calmodulin Kinase (calmodulin-dependent protein kinase 2) (Rattus norvegicus, UniProt P11275); assay: Kinase Selectivity Assay Calmodulin Kinase; assay type: biochemical
T8 construct: a truncated version of the alpha subunit of the rat protein; purchased New England Biolabs 6060; host or cells: insect cells
Method: as §1, §2

[7] = target: T9, HER2 (human epidermal growth factor receptor-2) (Homo sapiens, UniProt P04626); assay: Kinase Selectivity Assay HER2; assay type: biochemical
T9 construct: begins at amino acid 676 followed by the remainder of the HER2 cytoplasmic domain; polyhistidine (N)
Method: as §1, §2

Insulin Receptor Kinase = Insulin Receptor Kinase (Homo sapiens, UniProt P06213); assay: Kinase Selectivity Assay Insulin Receptor Kinase; assay type: biochemical
Method: as §1, §2

[8] = target: T10, CDK2 in complex with cyclin A (Homo sapiens, UniProt P24941); assay: Kinase Selectivity Assay CDK2; assay type: biochemical; conditions: Table 1
T10 construct: purchased Upstate Biotech
Method: as §1, §2

[9] = Kinase Selectivity, Tables 2a-2k, read-out: CDK1 IC50
[10] = Kinase Selectivity, Tables 2a-2k, read-out: VEGF-R IC50
[11] = Kinase Selectivity, Tables 2a-2k, read-out: Caseine Kinase 2 IC50
[12] = Kinase Selectivity, Tables 2a-2k, read-out: PDGF-R kinase IC50
[13] = Kinase Selectivity, Tables 2a-2k, read-out: GSK-3 IC50
[14] = Kinase Selectivity, Tables 2a-2k, read-out: HER2 Kinase IC50

T2 sequence (O08775 786-1343): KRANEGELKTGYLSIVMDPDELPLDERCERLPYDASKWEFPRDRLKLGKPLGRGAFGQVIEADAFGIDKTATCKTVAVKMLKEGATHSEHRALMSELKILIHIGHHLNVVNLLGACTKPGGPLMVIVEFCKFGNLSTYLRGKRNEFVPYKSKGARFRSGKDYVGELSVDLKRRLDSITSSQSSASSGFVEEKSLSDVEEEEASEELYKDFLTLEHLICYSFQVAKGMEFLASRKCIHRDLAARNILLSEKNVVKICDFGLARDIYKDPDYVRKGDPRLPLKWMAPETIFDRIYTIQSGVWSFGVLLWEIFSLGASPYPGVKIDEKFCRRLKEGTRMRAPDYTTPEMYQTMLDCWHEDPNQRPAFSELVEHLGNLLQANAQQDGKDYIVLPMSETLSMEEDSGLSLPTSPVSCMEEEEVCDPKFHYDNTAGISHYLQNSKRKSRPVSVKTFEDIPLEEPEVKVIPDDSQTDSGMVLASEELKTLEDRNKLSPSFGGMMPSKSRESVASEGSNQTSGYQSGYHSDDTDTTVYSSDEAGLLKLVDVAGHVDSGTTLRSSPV
T1 sequence (P06493 whole entry): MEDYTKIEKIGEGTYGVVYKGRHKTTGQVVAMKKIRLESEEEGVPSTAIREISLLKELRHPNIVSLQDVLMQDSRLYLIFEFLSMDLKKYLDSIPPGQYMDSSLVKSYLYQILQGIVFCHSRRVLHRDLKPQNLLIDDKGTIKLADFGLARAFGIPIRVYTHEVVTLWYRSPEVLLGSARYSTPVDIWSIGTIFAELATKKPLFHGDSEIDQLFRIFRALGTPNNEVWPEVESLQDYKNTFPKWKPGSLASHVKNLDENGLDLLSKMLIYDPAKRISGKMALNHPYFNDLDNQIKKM
T1 sequence (P14635 whole entry partner): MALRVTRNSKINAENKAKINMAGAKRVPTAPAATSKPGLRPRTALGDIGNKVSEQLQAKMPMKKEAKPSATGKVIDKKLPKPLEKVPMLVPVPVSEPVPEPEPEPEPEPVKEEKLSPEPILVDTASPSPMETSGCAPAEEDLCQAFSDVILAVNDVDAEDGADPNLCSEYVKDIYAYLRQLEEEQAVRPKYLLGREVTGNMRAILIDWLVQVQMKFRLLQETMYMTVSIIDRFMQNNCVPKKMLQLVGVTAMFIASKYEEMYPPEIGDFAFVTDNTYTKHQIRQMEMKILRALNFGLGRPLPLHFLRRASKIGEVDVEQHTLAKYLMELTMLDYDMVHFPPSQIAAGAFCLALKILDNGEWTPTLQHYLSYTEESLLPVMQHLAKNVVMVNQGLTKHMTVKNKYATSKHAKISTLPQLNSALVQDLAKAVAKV
T4 sequence (G1T8E2 1-432): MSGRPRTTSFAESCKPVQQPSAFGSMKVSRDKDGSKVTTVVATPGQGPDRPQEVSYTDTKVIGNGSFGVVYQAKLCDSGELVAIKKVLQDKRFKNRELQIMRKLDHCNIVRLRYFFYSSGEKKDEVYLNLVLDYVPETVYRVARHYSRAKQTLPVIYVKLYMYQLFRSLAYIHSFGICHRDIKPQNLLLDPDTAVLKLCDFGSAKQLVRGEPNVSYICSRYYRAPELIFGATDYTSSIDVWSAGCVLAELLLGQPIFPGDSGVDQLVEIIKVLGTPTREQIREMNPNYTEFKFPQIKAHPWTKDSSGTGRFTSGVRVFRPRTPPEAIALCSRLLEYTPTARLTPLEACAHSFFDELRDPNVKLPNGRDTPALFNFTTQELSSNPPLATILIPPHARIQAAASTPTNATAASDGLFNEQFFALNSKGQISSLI
T3 sequence (P09619 564-1106): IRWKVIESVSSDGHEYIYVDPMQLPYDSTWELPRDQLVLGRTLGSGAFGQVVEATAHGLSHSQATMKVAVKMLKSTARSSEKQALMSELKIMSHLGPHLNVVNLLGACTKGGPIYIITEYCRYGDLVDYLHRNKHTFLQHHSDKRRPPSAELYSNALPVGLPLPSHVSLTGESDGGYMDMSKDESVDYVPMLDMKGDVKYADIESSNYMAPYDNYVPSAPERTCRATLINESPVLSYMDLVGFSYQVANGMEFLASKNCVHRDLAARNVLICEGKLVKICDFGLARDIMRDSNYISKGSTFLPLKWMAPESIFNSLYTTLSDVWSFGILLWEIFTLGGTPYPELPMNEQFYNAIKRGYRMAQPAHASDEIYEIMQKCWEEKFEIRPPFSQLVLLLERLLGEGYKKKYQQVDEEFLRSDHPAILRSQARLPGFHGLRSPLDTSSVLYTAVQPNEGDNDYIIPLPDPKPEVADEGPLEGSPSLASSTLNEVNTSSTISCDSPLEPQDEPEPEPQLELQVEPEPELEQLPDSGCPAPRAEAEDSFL
T6 sequence (P68400 whole entry): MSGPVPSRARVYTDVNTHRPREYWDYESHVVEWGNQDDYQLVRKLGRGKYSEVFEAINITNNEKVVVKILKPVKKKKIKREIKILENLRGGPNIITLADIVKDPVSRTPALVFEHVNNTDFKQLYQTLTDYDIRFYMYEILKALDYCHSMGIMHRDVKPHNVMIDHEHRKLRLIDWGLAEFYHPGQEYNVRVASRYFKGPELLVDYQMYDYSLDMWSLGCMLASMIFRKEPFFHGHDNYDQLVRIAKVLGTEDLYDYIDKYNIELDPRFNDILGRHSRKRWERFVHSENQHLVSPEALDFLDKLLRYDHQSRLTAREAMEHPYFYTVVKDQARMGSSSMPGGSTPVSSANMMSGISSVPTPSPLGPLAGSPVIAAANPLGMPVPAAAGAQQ
T6 sequence (P67870 whole entry partner): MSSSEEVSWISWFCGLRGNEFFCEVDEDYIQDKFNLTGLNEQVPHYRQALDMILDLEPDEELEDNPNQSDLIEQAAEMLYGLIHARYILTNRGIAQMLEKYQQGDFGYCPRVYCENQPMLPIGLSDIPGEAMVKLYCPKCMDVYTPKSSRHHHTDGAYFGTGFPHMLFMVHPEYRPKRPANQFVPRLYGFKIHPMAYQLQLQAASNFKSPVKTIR
T9 sequence (P04626 676-1255 limits assumed): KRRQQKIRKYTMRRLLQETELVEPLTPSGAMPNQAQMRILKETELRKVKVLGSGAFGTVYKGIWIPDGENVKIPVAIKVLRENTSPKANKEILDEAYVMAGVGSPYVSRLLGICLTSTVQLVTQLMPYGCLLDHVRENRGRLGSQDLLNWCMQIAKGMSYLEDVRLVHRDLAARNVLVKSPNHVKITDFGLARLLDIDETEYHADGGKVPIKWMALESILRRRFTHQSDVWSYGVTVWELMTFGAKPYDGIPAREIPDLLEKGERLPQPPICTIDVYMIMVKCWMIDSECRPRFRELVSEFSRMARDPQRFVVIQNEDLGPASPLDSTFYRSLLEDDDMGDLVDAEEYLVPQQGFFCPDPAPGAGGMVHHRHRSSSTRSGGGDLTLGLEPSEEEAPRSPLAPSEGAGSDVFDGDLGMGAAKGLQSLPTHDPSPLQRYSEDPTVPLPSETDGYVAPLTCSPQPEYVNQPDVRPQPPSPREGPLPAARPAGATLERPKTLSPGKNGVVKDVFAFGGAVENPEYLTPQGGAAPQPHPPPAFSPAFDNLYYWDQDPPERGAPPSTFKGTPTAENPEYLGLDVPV
T5 sequence (P63086 whole entry, canonical isoform): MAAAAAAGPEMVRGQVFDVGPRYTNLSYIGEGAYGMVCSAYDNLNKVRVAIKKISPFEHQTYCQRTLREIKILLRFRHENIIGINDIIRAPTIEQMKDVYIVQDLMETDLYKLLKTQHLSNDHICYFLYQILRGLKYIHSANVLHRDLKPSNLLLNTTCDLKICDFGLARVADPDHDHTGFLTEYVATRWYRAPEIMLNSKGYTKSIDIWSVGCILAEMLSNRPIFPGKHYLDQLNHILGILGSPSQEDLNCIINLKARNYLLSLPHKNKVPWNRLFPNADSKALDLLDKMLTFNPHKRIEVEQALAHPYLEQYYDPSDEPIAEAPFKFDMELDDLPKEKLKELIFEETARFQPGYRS
Sequence of Insulin Receptor Kinase (P06213 980-1352): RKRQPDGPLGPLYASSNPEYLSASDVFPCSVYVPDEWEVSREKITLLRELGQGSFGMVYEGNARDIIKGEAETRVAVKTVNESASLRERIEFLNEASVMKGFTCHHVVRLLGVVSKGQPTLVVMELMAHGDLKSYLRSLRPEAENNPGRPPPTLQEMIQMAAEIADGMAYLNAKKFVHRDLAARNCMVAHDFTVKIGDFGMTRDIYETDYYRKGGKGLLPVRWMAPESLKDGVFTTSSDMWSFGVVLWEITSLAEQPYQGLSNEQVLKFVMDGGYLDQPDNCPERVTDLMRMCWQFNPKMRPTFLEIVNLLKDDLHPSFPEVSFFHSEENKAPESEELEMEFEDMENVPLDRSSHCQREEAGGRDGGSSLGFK

SMILES | IC50 (CDK1:Cyclin-B; Table 1, read-out: CDK1 IC50) | IC50 ([1]; Table 1, read-out: VEGF-R IC50) | IC50 ([7]; Table 1, read-out: HER2 IC50) | other results
Cc1ccc(F)c(C(=O)n2nc(Nc3ccc(S(N)(=O)=O)cc3)nc2N)c1F [Cpd 2, 4-[[5-amino-1-(2,6-difluoro-3-methylbenzoyl)-1H-1,2,4-triazol-3-yl]amino]-benzenesulfonamide] | 3.2 nM | 366 nM |  | IC50 (CDK1:Cyclin-B; [9]): 3 nM; IC50 [1, 10]: 366 nM; IC50 [2]: 10700 nM; IC50 [3]: 31 nM; IC50 [4]: 9480 nM
Cc1ccsc1C(=O)n1nc(Nc2ccc(S(N)(=O)=O)cc2)nc1N [Cpd 15, 4-[[5-amino-1-[(3-methyl-2-thienyl)carbonyl]-1H-1,2,4-triazol-3-yl]amino]-benzenesulfonamide] | 4.8 nM |  |  | IC50 (CDK1:Cyclin-B; [9]): 4.8 nM; IC50 [5, 11]: > 100000 nM; IC50 [2, 12]: 79 nM; IC50 [3, 13]: 1.8 nM
Cc1cc(C)c(C(=O)n2nc(Nc3ccc(S(N)(=O)=O)cc3)nc2N)s1 [Cpd 33, 4-[[5-amino-1-[(3,5-dimethyl-2-thienyl)carbonyl]-1H-1,2,4-triazol-3-yl]amino]-benzenesulfonamide] |  |  |  | IC50 (CDK1:Cyclin-B; CDK1 IC50, Kinase Selectivity, Tables 2a-2k): 3 nM; IC50 (CDK1:Cyclin-B; CDK1 IC50, Table 1): 3.2 nM; IC50 [1]: 23.4 nM; IC50 [1, 10]: 23 nM; IC50 [5]: > 10000 nM; IC50 [2]: 39 nM; IC50 [3]: 4 nM; IC50 (Protein Kinase A): > 100000 nM; IC50 [4]: > 10000 nM; IC50 [6]: > 10000 nM; IC50 [7]: 5 nM; IC50 (Insulin Receptor Kinase): 316 nM
Nc1nc(Nc2ccc(S(N)(=O)=O)cc2)nn1C(=S)Nc1c(F)cccc1F [Cpd 66, 5-amino-3-[[4-(aminosulfonyl)phenyl]amino]-N-(2,6-difluorophenyl)-1H-1,2,4-triazole-1-carbothioamide] | 0.6 nM |  | 60 nM | IC50 (CDK1:Cyclin-B; [9]): 0.6 nM; IC50 [5, 11]: > 100000 nM; IC50 [2, 12]: 1580 nM; IC50 [7, 14]: 60 nM
Nc1nc(Nc2ccc(S(N)(=O)=O)cc2)nn1C(=O)Nc1c(F)cccc1F [Cpd 67, 5-amino-3-[[4-(aminosulfonyl)phenyl]amino]-N-(2,6-difluorophenyl)-1H-1,2,4-triazole-1-carboxamide] | 3.7 nM | 38 nM | 52 nM | IC50 [8]: 1.4 nM
CCNS(=O)(=O)c1ccc(Nc2nc(N)n(C(=O)c3c(F)cccc3F)n2)cc1 [Cpd 76, 4-[[5-amino-1-(2,6-difluorobenzoyl)-1H-1,2,4-triazol-3-yl]amino]-N-ethyl-benzenesulfonamide] | 12 nM | 530 nM | ~1000 nM | IC50 [8]: 4.4 nM
Nc1nc(Nc2ccc(S(N)(=O)=O)cc2)nn1C(=O)c1c(F)ccc(Cl)c1F [Cpd 78, 4-[[5-amino-1-(3-chloro-2,6-difluorobenzoyl)-1H-1,2,4-triazol-3-yl]amino]-benzenesulfonamide] | 6.6 nM | 420 nM | 780 nM | IC50 [8]: 1.7 nM
CNc1nc(N)n(C(=O)c2sccc2C)n1 [Cpd 79, N^3-methyl-1-[(3-methyl-2-thienyl)carbonyl]-1H-1,2,4-triazole-3,5-diamine] | > 100000 nM | > 100000 nM | > 100000 nM | IC50 [8]: > 100000 nM
Cc1ccc(F)c(C(=O)n2nc(Nc3ccc(-n4ccnc4)cc3)nc2N)c1F [Cpd 94, 1-(2,6-difluoro-3-methylbenzoyl)-N^3-[4-(1H-imidazol-1-yl)phenyl]-1H-1,2,4-triazole-3,5-diamine] | 272 nM | 409 nM | 147 nM | 
Cc1ccc(F)c(C(=O)n2nc(Nc3ccc(-n4cncn4)cc3)nc2N)c1F [Cpd 95, 1-(2,6-difluoro-3-methylbenzoyl)-N^3-[4-(1H-1,2,4-triazol-1-yl)phenyl]-1H-1,2,4-triazole-3,5-diamine] | 139 nM | 260 nM | 914 nM | 
Nc1nc(Nc2ccc(-n3cncn3)cc2)nn1C(=O)c1c(F)cccc1F [Cpd 96, 1-(2,6-difluorobenzoyl)-N^3-[4-(1H-1,2,4-triazol-1-yl)phenyl]-1H-1,2,4-triazole-3,5-diamine] | 373 nM | 817 nM | 1410 nM | 
CCc1ccc(C(=O)n2nc(Nc3ccc(-n4cncn4)cc3)nc2N)s1 [Cpd 97, 1-[(5-ethyl-2-thienyl)carbonyl]-N^3-[4-(1H-1,2,4-triazol-1-yl)phenyl]-1H-1,2,4-triazole-3,5-diamine] | ~100 nM | ~100 nM | ~10 nM | 
Cc1cc(C)c(C(=O)n2nc(Nc3ccc(-n4cncn4)cc3)nc2N)s1 [Cpd 98, 1-[(3,5-dimethyl-2-thienyl)carbonyl]-N^3-[4-(1H-1,2,4-triazol-1-yl)phenyl]-1H-1,2,4-triazole-3,5-diamine] | > 100 nM | ~100 nM | ~100 nM | 
Nc1nc(Nc2ccc(-n3cnnc3)cc2)nn1C(=O)c1c(F)cccc1F [Cpd 100, 1-(2,6-difluorobenzoyl)-N^3-[4-(4H-1,2,4-triazol-4-yl)phenyl]-1H-1,2,4-triazole-3,5-diamine] | 340 nM | 1100 nM | 1290 nM | 
Cc1ccc(F)c(C(=O)n2nc(Nc3ccc(-n4cnnc4)cc3)nc2N)c1F [Cpd 101, 1-(2,6-difluoro-3-methylbenzoyl)-N^3-[4-(4H-1,2,4-triazol-4-yl)phenyl]-1H-1,2,4-triazole-3,5-diamine] | 143 nM | 650 nM | 819 nM | 
Cc1ccsc1C(=O)n1nc(Nc2ccc(-n3cnnc3)cc2)nc1N [Cpd 102, 1-[(3-methyl-2-thienyl)carbonyl]-N^3-[4-(4H-1,2,4-triazol-4-yl)phenyl]-1H-1,2,4-triazole-3,5-diamine] | 2350 nM | 1100 nM | 2260 nM | 
CN(C)CCNS(=O)(=O)c1ccc(Nc2nc(N)n(C(=O)c3c(F)cccc3F)n2)cc1 [Cpd 106] | 125 nM | 559 nM | 37200 nM | IC50 [8]: 1 nM
CS(=O)(=O)Nc1ccc(Nc2nc(N)n(C(=O)c3c(F)cccc3F)n2)cc1 [Cpd 111] | 150 nM | 702 nM | 16800 nM | 
Cc1ccc(F)c(C(=O)n2nc(Nc3ccc(NS(C)(=O)=O)cc3)nc2N)c1F [Cpd 112] | 87 nM | 704 nM | 16400 nM | 
Nc1nc(Nc2cccc(Cl)c2)n(C(=O)c2c(F)cccc2F)n1 [Cpd 126, N^5-(3-chlorophenyl)-1-(2,6-difluorobenzoyl)-1H-1,2,4-triazole-3,5-diamine] |  |  |  | IC50 (CDK1:Cyclin-B; [9]): > 100000 nM; IC50 [1, 10]: > 100000 nM; IC50 [3, 13]: > 100000 nM; IC50 [7, 14]: ~100000 nM
Nc1nc(Nc2cccc(Cl)c2)n(C(=O)c2ccccc2)n1 [Cpd 127, 1-benzoyl-N^5-(3-chlorophenyl)-1H-1,2,4-triazole-3,5-diamine] |  |  |  | IC50 (CDK1:Cyclin-B; [9]): > 100000 nM; IC50 [1, 10]: > 100000 nM; IC50 [3, 13]: > 100000 nM; IC50 [7, 14]: > 100000 nM
